The values that follow come from patent US6921531B2, “Administering bifunctional molecules containing a drug moiety and presenter protein ligand for therapy” (The Board of Trustees of the Leland Stanford Junior …, priority 1998, dated 2005).

Molecules are shown by their SMILES. pKd: −log10 of the molar value. Entries after “also recorded” stand apart in the source; their conditions may differ.

Assay [1] deals with T1, FKBP12 (Homo sapiens, UniProt P62942).
T1 construct: GST (N, cleaved yes); made in house
T1 sequence (P62942 whole entry, species assumed): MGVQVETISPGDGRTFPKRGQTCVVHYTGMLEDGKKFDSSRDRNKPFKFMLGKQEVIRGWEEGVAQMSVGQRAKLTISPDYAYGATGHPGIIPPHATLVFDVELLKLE
The experiment in a line: Binding constants (Kd) for FKBP12, isothermal titration calorimetry. The text has this:
SLF was synthesized according to the procedures of Holt et al. [J. Am. Chem. Soc. 1993, 115, 9925]. SLF was coupled to the N-terminus of the resin-bound protected pYEEI peptide using PyBOP. The heterodimeric SLFpYEEI was deprotected and cleaved from the Novasyn TGT resin (Calbiochem-Novabiochem, San Diego, Ca.) using 25% trifluoroacetic acid and 2.5% triisopropyl silane in methylene chloride and the desired product was isolated using reverse phase HPLC. C. […] Recombinant FKBP12 was expressed as a GST fusion protein and bound to glutathione beads (Pharmacia). Using thrombin (Sigma) to cleave the GST-FKBP12 fusion protein at a thrombin cleavage site in the linker between GST and FKBP12, recombinant FKBP12 could be released from the glutathione beads where GST remained bound. FKBP52 was expressed with a tag of six histidine residues at its N-terminus (pET28c expression vector, Novagen). The recombinant protein was bound via the histidine tag to Ni^2+ NTA agarose beads (Qiagen), washed extensively and eluted with imidazole. […]
SLFpYEEI and FKpYEEI are bifunctional molecules that can bind FKBP12 and FKBP52 as well as the Fyn SH2 domain (FIG. 2). The binding constants (Kd values) of the bifunctional molecules for the three proteins were measured using isothermal titration calorimetry (ITC) (Table 1).

The subject of assay [2] is PLC SH2 domain. Description: Competition binding assay of radioactive PLC SH2 domain to pYEEI beads. The settings on record: 1.0-1.5 μM ligand plus FKBP12 (0.5-4.0 μM or 2.0 μM). The text has this: The pYEEI peptide was coupled to Affi-Gel 10 beads (Biorad) via its amino-group. The Fyn, Lck and PLC SH2 domains were expressed in bacteria as GST fusion proteins. The linker between the GST protein and the SH2 domain contained a thrombin cleavage site and a protein kinase A (PKA) phosphorylation site. The fusion protein on glutathione beads was radioactively labeled at the PKA phosphorylation site using PKA (Sigma). After extensive washing of the beads, the radioactive SH2 domain was released by cleavage with thrombin (Sigma). In a typical binding assay, 7.5 L of a 1:1 peptide bead slurry were incubated with the radioactive SH2 domain (200 nM) for 2 hours in 100 L of binding buffer (20 mM Tris pH7.2; 150 mM NaCl). In order to separate the radioactive protein bound to the beads, the binding reaction was transfered into a PCR tube (USA Scientific Plastic), whose bottom had been punctured with a 26gauge needle. The PCR tube was placed in a 0.5 mL Eppendorf tube which in turn was placed in a regular 1.5 mL Eppendorf tube. The tubes were spun for 1 second at maximal speed in an Eppendorf centrifuge resulting in the separation of the beads remaining in the PCR tube and the supernatant, which was collected in the 0.5 ml Eppendorf tube. The beads were resuspended in […] PBS and the radioactivity was counted in a liquid scintillation counter after addition of 3 ml scintillation fluid. The radioactivity remaining in the 100 L supernatant was counted in the same way. It was determined that under the conditions described 65% Fyn, 25% PLC and 15%Lck SH2 domain were bound to the beads. […]
The binary complex of FKpYEEI and FKBP 12 has the same affinity for the Fyn SH2 domain as free FKpYEEI (see FIG. 7). […] The binding reactions were rotated at room temperature for 2 hours, centrifuged and analysed as described above.
In this assay, in 100 L binding reactions, radioactively labeled PLC SH2 domain (400 nM) was incubated with 7.5 L of a 1:1 pYEEI bead slurry. […] The binding reactions were rotated at room temperature for 2 hours, centrifuged and analysed as described above. […]

Usually pKd stands for the Kd on a negative log10 scale, so that one unit is a factor of ten. A high value points to a low Kd. Consider `CC[C@H](C)[C@H](NC(=O)[C@H](CCC(=O)O)NC(=O)[C@H](CCC(=O)O)NC(=O)[C@H](Cc1ccc(OP(=O)(O)O)cc1)NC(=O)COc1cccc([C@@H](CCc2ccc(OC)c(OC)c2)OC(=O)[C@@H]2CCCCN2C(=O)C(=O)C(C)(C)CC)c1)C(=O)O` [SLFpYEEI], for which, in assay [1], the negative logarithm of the Kd (pKd) was 7.21. In assay [2], the “Effect of FKBP12 on affinity for the PLC SH2 domain” value is given as “reduced binding”.
In the same order, the values of `CC[C@H](C)[C@H](NC(=O)[C@H](CCC(=O)O)NC(=O)[C@H](CCC(=O)O)NC(=O)[C@H](Cc1ccc(OP(=O)(O)O)cc1)NC(=O)OCC[C@@H]1/C=C(\C)C[C@H](C)C[C@H](OC)[C@H]2O[C@@](O)(C(=O)C(=O)N3CCCC[C@H]3C(=O)O[C@H](/C(C)=C/[C@@H]3CC[C@@H](O)[C@H](OC)C3)[C@H](C)[C@@H](O)CC1=O)[C@H](C)C[C@@H]2OC)C(=O)O` [FKpYEEI] are 7.35 and “decreased affinity for the PLC SH2 domain; also recorded: reducing binding to the PLC SH2 domain”.
